Test results from publication PMC11126936, “Reactivating Hippo by drug compounds to suppress gastric cancer and enhance chemotherapy sensitivity” (The Journal of Biological Chemistry, 2024).
“And” between values parts separate entries of the source, which are not always exact repeats. Identical values can stand only once. “Also recorded” adds a separate entry of the source. Like-named read-outs stand apart in the source and are kept apart here.

What was measured:
MKN-28 cells = assay: Killing efficiency in MKN-28 cells; assay type: cell-based, human
HGC-27 cells [1] = assay: Colony formation assay in HGC-27 cells; conditions: about 2 weeks
Protocol: After about 2 weeks incubation, cell colonies were identified by their being stained with 1% crystal violet dye. And colonies with diameters of >1 mm were counted.

STRN3–MST2 interaction = molecular target: T1, STRN3–MST2 interaction (Homo sapiens, UniProt Q13188); assay: MBP/GST pull-down and Co-IP, STRN3–MST2; assay type: binding
T1 construct: GST-tagged MST2 (amino acid 1–308), MBP-tagged MST2 (amino acid 1–308); made in house; host or cells: E. coli BL21 Codon plus (DE3)

[2] = test system: YAP target gene CTGF in HGC-27 cells; assay: CTGF mRNA (qPCR) in HGC-27 cells; conditions: 48 h
MST2^Mut (L33/E35/V41A) = molecular target: T2, MST2^Mut (L33/E35/V41A) (Homo sapiens, UniProt Q13188, E35A/L33A/V41A); assay: MST assay, binding to MST2 mutant; conditions: L33/E35/V41 substituted with alanine
T2 construct: the mutant MBP-tagged MST2 (amino acid 1–308, L33/E35/V41A); MBP; made in house; host or cells: E. coli BL21 Codon plus (DE3)
T2 sequence (Q13188 1-308 L33A/E35A/V41A): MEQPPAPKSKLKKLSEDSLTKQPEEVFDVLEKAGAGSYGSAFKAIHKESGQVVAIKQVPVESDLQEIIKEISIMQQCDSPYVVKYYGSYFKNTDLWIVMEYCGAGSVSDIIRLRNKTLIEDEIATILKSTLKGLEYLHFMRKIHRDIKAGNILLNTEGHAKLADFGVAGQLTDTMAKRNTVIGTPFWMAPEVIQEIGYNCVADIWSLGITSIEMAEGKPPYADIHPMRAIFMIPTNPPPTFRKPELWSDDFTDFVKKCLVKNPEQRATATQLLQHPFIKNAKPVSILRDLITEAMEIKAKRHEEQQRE

HEK293A cells = assay: DNA repair after etoposide (residual γ-H2AX immunoblot); assay type: cell-based; conditions: 20 μM etoposide 2 h, then with or without compound 6 h
MST2 = molecular target: T3, MST2 (Homo sapiens, UniProt Q13188); assay: MST assay, binding to MST2
T3 construct: made in house; host or cells: E. coli BL21 Codon plus (DE3)
T3 sequence (Q13188 1-491): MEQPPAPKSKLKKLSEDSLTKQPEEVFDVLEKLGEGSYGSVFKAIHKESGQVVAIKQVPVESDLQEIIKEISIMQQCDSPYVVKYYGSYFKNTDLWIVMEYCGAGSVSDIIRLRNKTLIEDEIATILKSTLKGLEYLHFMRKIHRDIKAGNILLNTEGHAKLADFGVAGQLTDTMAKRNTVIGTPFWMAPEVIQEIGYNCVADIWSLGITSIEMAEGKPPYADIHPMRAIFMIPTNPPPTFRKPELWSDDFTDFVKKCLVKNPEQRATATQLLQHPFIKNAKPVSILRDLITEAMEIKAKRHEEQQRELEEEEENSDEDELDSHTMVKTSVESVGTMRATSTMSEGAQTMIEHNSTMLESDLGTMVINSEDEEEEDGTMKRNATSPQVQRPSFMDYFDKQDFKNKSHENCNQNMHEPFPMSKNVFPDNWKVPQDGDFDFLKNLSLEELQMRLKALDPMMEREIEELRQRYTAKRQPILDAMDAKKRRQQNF

HGC-27 cells [3] = assay: Cell viability assay in HGC-27 cells; assay type: cell-based, human; conditions: for inhibition of HGC-27 cell growth / viability: result in words
PP2Aa–STRN3 interaction [4] = molecular target: T4, PP2Aa–STRN3 interaction (Homo sapiens, UniProt P30153); assay: GST pulldown assay, PP2Aa–STRN3; assay type: binding; set-up: GST; SUMO; made in house; host or cells: E. coli BL21 Codon plus (DE3); conditions: recombinant GST-PP2Aa and His-Sumo-STRN3; up to 10 μM compound
Target sequence in this assay (P30153 8-589): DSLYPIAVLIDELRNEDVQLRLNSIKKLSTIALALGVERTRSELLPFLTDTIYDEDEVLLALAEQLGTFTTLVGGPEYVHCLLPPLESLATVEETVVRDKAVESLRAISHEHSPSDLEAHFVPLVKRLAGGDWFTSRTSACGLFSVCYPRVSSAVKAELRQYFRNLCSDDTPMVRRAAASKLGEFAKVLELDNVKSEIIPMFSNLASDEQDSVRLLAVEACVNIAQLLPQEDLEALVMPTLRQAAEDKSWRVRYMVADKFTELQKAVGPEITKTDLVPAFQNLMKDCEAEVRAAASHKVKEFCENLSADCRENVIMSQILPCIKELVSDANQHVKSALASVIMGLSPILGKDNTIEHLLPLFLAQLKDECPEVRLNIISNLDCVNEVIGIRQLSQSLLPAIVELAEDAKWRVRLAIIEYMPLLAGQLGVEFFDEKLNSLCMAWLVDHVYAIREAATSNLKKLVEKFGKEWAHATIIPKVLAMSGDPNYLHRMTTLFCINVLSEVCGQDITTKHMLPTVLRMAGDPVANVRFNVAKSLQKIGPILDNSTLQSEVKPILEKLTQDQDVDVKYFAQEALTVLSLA

[5] = test system: YAP target gene CTGF in GES-1 cells; assay: CTGF mRNA (qPCR) in GES-1 cells; conditions: 48 h
PP2Aa–STRN3 interaction [6] = molecular target: T4, PP2Aa–STRN3 interaction; assay: Co-IP of HA-PP2Aa and Flag-STRN3 in HEK293A cells; assay type: cell-based; set-up: expressed in transfected cells; host or cells: HEK293A
Target sequence in this assay (P30153 whole entry): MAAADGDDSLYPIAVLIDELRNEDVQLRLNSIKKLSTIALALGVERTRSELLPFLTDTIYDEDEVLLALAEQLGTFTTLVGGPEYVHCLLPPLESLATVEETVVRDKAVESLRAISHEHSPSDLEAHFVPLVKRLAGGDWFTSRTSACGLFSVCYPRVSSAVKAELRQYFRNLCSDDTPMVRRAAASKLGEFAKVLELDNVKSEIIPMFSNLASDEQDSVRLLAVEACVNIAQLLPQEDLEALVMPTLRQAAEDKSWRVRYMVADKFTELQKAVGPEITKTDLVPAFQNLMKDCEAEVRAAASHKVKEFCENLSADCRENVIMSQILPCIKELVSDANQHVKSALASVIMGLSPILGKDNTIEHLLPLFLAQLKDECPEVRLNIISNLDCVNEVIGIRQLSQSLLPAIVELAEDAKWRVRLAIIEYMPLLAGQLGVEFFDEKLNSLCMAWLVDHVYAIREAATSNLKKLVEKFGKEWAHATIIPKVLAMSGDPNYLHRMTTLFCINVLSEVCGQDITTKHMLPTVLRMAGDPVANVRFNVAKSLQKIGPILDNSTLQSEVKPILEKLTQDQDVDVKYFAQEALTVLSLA

PP2Aa = molecular target: T5, PP2Aa (Homo sapiens, UniProt P30153); assay: MST assay, binding to PP2Aa
T5 construct: GST; made in house; host or cells: E. coli BL21 Codon plus (DE3)
T5 sequence (P30153 8-589): as the sequence (P30153 8-589) above

AGS cells = assay: Killing efficiency in AGS cells; assay type: cell-based, human
zebrafish larvae = conditions: ref [65], [66]; cited from earlier work
NUGC-4 cells = assay: NUGC-4 cell viability, XMU-MP-1 with cisplatin; assay type: cell-based, human
AGS cells xenograft = assay: AGS xenograft tumor model; conditions: intratumoral injection, five consecutive days, vs control
Protocol: Briefly, healthy male 615 mice were maintained in pathogen-free conditions. Mice were first injected with 2 × 10^6 AGS cells/per mouse into their flanks to induce tumor formation. Once the tumor volume reached about 100 mm^3, mice were injected intratumorally with indicted inhibitors for five successive days. Two weeks later, the mice were euthanized and then their tumors were harvested and weighed.

11 different GC cells = assay: Cisplatin cell viability in 11 GC cell lines; conditions: read-out: IC50, cisplatin-sensitive GC cell lines; cell lines with higher pMST1/2 such as NUGC-4
purified PP2Aa (8–589) [7] = molecular target: T6, purified PP2Aa (8–589) (UniProt P30153 8-589); assay: MST; Monolith NT.115, 25 °C, fluorescent-labeled protein; STRN3 to PP2Aa, also with DSF or TH added; conditions: both partners purified
T6 construct: As used in ITC and MST
T6 sequence (P30153 8-589): as above

purified PP2Aa (8–589) [8] = molecular target: T6, purified PP2Aa (8–589); conditions: both partners purified
[9] = molecular target: T7, purified MST2 recombinant protein (UniProt Q13188); assay: MST; Monolith NT.115, 25 °C, fluorescent-labeled protein; STRN3 and MST2 without CX
T7 sequence (Q13188 1-491, species assumed, looked up): T3 sequence (Q13188 1-491)

[10] = molecular target: T8, MBP-tagged MST2 (amino acid 1–308) (UniProt Q13188 1-308); conditions: both partners purified
T8 construct: MST2 kinase, amino acid 1-308; also called MBP-MST2; source: E. coli BL21 Coden plus (DE3), purified (MBP beads, size-exclusion chromatography)
T8 sequence (looked up): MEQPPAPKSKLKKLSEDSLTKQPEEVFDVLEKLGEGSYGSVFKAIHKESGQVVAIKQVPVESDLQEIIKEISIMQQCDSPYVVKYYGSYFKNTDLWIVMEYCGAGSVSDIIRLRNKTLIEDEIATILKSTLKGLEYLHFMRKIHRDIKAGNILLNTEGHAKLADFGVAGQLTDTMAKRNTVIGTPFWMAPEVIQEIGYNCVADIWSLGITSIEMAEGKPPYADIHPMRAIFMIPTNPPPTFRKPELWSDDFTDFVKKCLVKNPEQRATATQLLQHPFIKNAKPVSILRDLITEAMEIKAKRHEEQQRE

[11] = molecular target: T9, GST-tagged MST2 (amino acid 1–308) (UniProt Q13188 1-308); conditions: both partners purified
T9 construct: MST2 kinase, amino acid 1-308; also called GST-MST2; source: E. coli BL21 Coden plus (DE3), purified (GST beads, size-exclusion chromatography)
T9 sequence (looked up): T8 sequence (looked up)

[12] = Homo sapiens, HGC-27, cell viability, read-out: IC50 values in HGC-27 cells
[13] = cell viability, read-out: IC50 values in HGC-27 cells

For CN1CCCN(C(=O)c2cccc(-c3ccc(C=C4C(=O)Nc5ccc(Cl)cc54)o3)c2)CC1 [CX, CX-6258], the “sensitization of GC cells to cisplatin” value (MKN-28 cells; 1 μM CX and 20 μM cisplatin) was “greatly sensitized GC cells to cisplatin”, the “colony formation of HGC-27 cells” value (HGC-27 cells [1]) was “inhibited” and the “STRN3–MST2 interaction in MBP pull-down” value (STRN3–MST2 interaction) was “able to disrupt”. The “mRNA levels of YAP target gene CTGF” value [2] was “dose-dependently decreased”, the “binding to MST2^Mut” value (MST2^Mut (L33/E35/V41A)) was “failed to bind with CX” and the “DNA repair (residual γ-H2AX)” value (HEK293A cells) was “markedly attenuated the repair”. For the same molecule, the Kd (MST2) was 0.339 µM, the “effect on STRN3–MST2 binding” value (MST2; in the presence of compound) was “could not bind with each other in the presence of CX” and the “inhibition of HGC-27 cell growth / viability” value (HGC-27 cells [3]) was “significantly inhibit; also recorded: inhibited the cell viability; also recorded: comparable with DSF”.

Work on O=c1c2ccccc2[se]n1-c1ccccc1 [Ebselen] yielded an IC50 (HGC-27 cells [3]; [12]) of 27.5 µM.

With Oc1cc2c(cc1O)C1c3ccc(O)c(O)c3OCC1(O)C2 (centres unmarked) [HAEMATOXYLIN] the IC50 (HGC-27 cells [3]; [12]) was 37.9 µM.

For O=C([O-])c1ccccc1-c1c2cc(Br)c(=O)cc-2oc2[c]([Hg+])c([O-])c(Br)cc12.[Na+].[Na+].[OH-] [Merbromin], the IC50 (HGC-27 cells [3]; [13]) was 15.2 µM.

In the case of CC(=O)[O][Hg][c]1ccccc1 [Phenylmercuric acetate], the IC50 (HGC-27 cells [3]; cell viability, listed as phenylmercuric acetate, read-out: IC50 values in HGC-27 cells) is reported as under 5 µM and the IC50 (HGC-27 cells [3]; [13]) is reported as 4.05 µM.

In the case of Cc1ccc(C(=O)Nc2ccc(S(=O)(=O)[O-])c3cc(S(=O)(=O)[O-])cc(S(=O)(=O)[O-])c23)cc1NC(=O)c1cccc(NC(=O)Nc2cccc(C(=O)Nc3cc(C(=O)Nc4ccc(S(=O)(=O)[O-])c5cc(S(=O)(=O)[O-])cc(S(=O)(=O)[O-])c45)ccc3C)c2)c1.[Na+].[Na+].[Na+].[Na+].[Na+].[Na+] [Suramin Sodium Salt], the “STRN3–MST2 interaction in MBP pull-down” value (STRN3–MST2 interaction) is reported as “able to disrupt” and the “inhibition of HGC-27 cell growth / viability” value (HGC-27 cells [3]) is reported as “not”.

With CN(C)C(=S)SSC(=S)N(C)C [TH, thiram] the “colony formation of HGC-27 cells” value (HGC-27 cells [1]) was “significantly inhibited colony formation”, the “PP2Aa–STRN3 association in GST pulldown” value (PP2Aa–STRN3 interaction [4]) was “efficiently disrupt” and the “mRNA levels of YAP target gene CTGF” value [5] was “no significant change”. The “PP2Aa–STRN3 interaction in Co-IP” value (PP2Aa–STRN3 interaction [6]) was “further validated by Co-IP assay”, the Kd (PP2Aa) was 1.52 µM and the “binding affinity to PP2Aa relative to that of STRN3 to PP2Aa” value (PP2Aa) was 14 fold. The “effect on binding of STRN3 to PP2Aa” value (PP2Aa; compound added) was “efficiently disrupt”, the “sensitization of GC cells to cisplatin” value (AGS cells; 0.1 μM TH and 10 μM cisplatin) was “significantly sensitized GC cells to cisplatin” and the “adverse effects in zebrafish larvae” value (zebrafish larvae) was “adverse effects”. The “DNA repair (residual γ-H2AX)” value (HEK293A cells) was “decreased”, the IC50 (HGC-27 cells [3]; [12]) was 0.4 µM and the “effect of addition of copper ion on suppression of HGC-27 cell viability by the compound” value (HGC-27 cells [3]; compound-Cu complex vs compound) was “markedly enhanced”.

For COc1cc2c(NC3CCN(CC4CCCCC4)CC3)nc(N3CCCN(C(C)C)CC3)nc2cc1OCCCN1CCCCC1 [UNC0631], the IC50 (HGC-27 cells [3]; [13]) was < 5 µM and 2.86 µM.

With COc1ccc(C(=O)O[C@H]2CC[C@@]3(C)[C@@H]4CC[C@H]5[C@]6(O)C[C@H](O)[C@@]7(O)[C@@H](CN8C[C@@H](C)CC[C@H]8[C@@]7(C)O)[C@]6(O)C[C@@]53O[C@]24O)cc1OC [Veratridine] the IC50 (HGC-27 cells [3]; Homo sapiens, HGC-27, read-out: IC50 values in HGC-27 cells) was 15.7 µM.

For CN1C(=O)c2sccc2N(C)c2nc(Nc3ccc(S(N)(=O)=O)cc3)ncc21 [XMU-MP-1], the “effect of co-treatment on cisplatin sensitivity” value (NUGC-4 cells) was “triggered much more resistance to cisplatin”.

With N.N.[Cl][Pt][Cl] [cisplatin] the “efficiency in killing cancer cells” value (MKN-28 cells; nontoxic concentrations, alone or combined) was “about 20%”, the “tumor weight / tumor growth” value (AGS cells xenograft) was “modestly lower tumor weights” and the “efficiency in killing cancer cells” value (AGS cells; 0.05 μM DSF, 20 μM cisplatin, alone or combined) was “about 20%”. It also gave an IC50 (11 different GC cells) of under 20 µM.

B1: STRN3 (64–145) (domain or fragment, UniProt Q13033 64-145, looked up)
chain: TIPGILHYIQHEWARFEMERAHWEVERAELQARIAFLQGERKGQENLKKDLVRRIKMLEYALKQERAKYHKLKYGTELNQGD
notes: STRN3 (striatin-3), amino acid 64-145
B1 gave a Kd (purified PP2Aa (8–589) [7]) of 20.7 µM, a Kd (purified PP2Aa (8–589) [8]) of 11.9 µM and a Kd [9] of 0.624 µM.

B2: STRN3: recombinant His-SUMO-tagged STRN3 (amino acid 64–145), binding partner of PP2Aa and MST2 (protein, UniProt Q13033 64-145, looked up, fragment)
chain: B1 chain
modifications: His-SUMO tag
B2 gave a Kd (MST2) of 0.624 µM.

B3: His-SUMO-tagged STRN3 (amino acid 64–145) (domain or fragment, UniProt Q13033 64-145, looked up)
chain: B1 chain
notes: STRN3 (striatin-3), amino acid 64-145; Used where the tag is named or used for capture: the GST and MBP pull-downs and the nickel chelate acceptor beads of the AlphaScreen; also called HS-STRN3; His-tagged STRN3
B3: binds [10]; binds [11].
